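Each compound was tested at five concentrations against cells in 96-well plates for 48 hours. GI50 marks 50% less growth. TGI: concentration producing complete growth inhibition.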
Legend:
Experiment in all cases: NCI tumour cell line growth inhibition, 48 h
[1] = test system: OVCAR-8 ovarian
[2] = test system: OVCAR-3 ovarian
[3] = test system: NCI-H226 lung
[4] = test system: HCC-2998 colon
[5] = test system: SW-620 colon
[6] = test system: SK-MEL-2 melanoma
[7] = test system: UACC-62 melanoma
[8] = test system: A549 NSCLC
[9] = test system: RXF 393 renal
[10] = test system: RPMI-8226 leukemia

| Structure (SMILES) | TGI [1] | TGI [2] | TGI [3] | TGI [4] | TGI [5] | TGI [6] | TGI [7] | TGI [8] | TGI [9] | TGI [10] | GI50 [1] | GI50 [2] | GI50 [3] | GI50 [4] | GI50 [5] | GI50 [6] | GI50 [7] | GI50 [9] | GI50 [10] | GI50 [8] |
| --- | --- | --- | --- | --- | --- | --- | --- | --- | --- | --- | --- | --- | --- | --- | --- | --- | --- | --- | --- | --- |
| COc1ccc2c3c(c(C(=O)O)oc13)CCC2 | > 100 µM | > 100 µM | 83 µM | > 100 µM | > 100 µM | > 100 µM | > 100 µM | > 100 µM | > 100 µM | > 100 µM |  |  |  |  |  |  |  |  |  |  |
| Cc1cc2c(cc1C)[n+](=O)c(C(=O)/C=C/c1ccc3c(c1)OCO3)c(C)n2[O-] | > 100 µM | > 100 µM | > 100 µM | > 100 µM | > 100 µM | 88.6 µM | 59.5 µM | > 100 µM | 66.6 µM | > 100 µM |  |  |  |  |  |  |  |  |  |  |
| O=C1Nc2ccccc2/C1=C\c1cccc(/C=C2/C(=O)Nc3ccccc32)n1 | 1.13 µM | 0.683 µM | 5.13 µM | 1.77 µM | 0.329 µM | 1.62 µM | 0.962 µM |  | 0.61 µM | 0.699 µM | 0.3 µM | 0.254 µM | 1.53 µM | 0.615 µM | 0.162 µM | 0.631 µM | 0.32 µM | 0.248 µM | 0.232 µM |  |
| Cc1ccc(NC(=O)C(=O)C(C(=O)c2ccc3ccccc3c2)C2OC(=O)c3ccccc32)c(C)c1 (stereo not drawn) | 36.8 µM | 31.5 µM | 15.8 µM | 21.1 µM | 21.6 µM | 26.8 µM | 17.3 µM | 62.8 µM | 22.5 µM | 40.4 µM |  |  |  |  |  |  |  |  |  |  |
| CC(=O)NNc1nc(C)c(C(/C=C/c2ccc([N+](=O)[O-])cc2)=N/NC(N)=O)s1 | > 100 µM | > 100 µM | > 100 µM | > 100 µM | > 100 µM | > 100 µM | > 100 µM | > 100 µM | > 100 µM | > 100 µM |  |  |  |  |  |  |  |  |  |  |
| O=C1OC(c2ccccc2)(c2ccccc2)c2ccc3ccc(F)cc3c21 | > 100 µM | > 100 µM | > 100 µM | > 100 µM | > 100 µM | > 100 µM | > 100 µM | > 100 µM | > 100 µM | > 100 µM |  |  |  |  |  |  |  |  |  |  |
| CSC(=Nc1ccccc1Cl)NC(=O)c1ccc(Br)cc1 | > 100 µM | > 100 µM | > 100 µM | > 100 µM | > 100 µM | > 100 µM | > 100 µM | > 100 µM | > 100 µM | > 100 µM |  |  |  |  |  |  |  |  |  |  |
| CCOc1cc(C(=O)O)c2c(ccc3ccc(OC)c(OC)c32)c1OC | > 100 µM | > 100 µM | > 100 µM | > 100 µM | > 100 µM | > 100 µM | > 100 µM | > 100 µM | > 100 µM | > 100 µM |  |  |  |  |  |  |  |  |  |  |
| COc1ccc(C(C#N)=C2C=CC(=NO)C=C2)cc1 | 22.9 µM | 13.4 µM | 15.2 µM | 29.7 µM | 4.39 µM | 6.18 µM | 21.9 µM | 39.8 µM | 20.5 µM | 17.9 µM | 10.2 µM | 4.31 µM | 3.97 µM | 16.1 µM | 2.09 µM | 2.59 µM | 8.34 µM | 7.8 µM | 3.2 µM | 16.5 µM |

— PubChem BioAssay (NCI)
